Source: ChEMBL document CHEMBL3352440, “Design, synthesis and SAR exploration of tri-substituted 1,2,4-triazoles as inhibitors of the annexin A2-S100A10 protein interaction” (Bioorg Med Chem, 2014)
Calls of active or inactive are those of the source. No cut-off for these calls is given here.

Biological target: Annexin A2/S100-A10 (Homo sapiens) (UniProt P07355+P60903)
Assay: Inhibition of Annexin A2/Protein S100-A10 protein interaction in human MDA-MB-231 cells by Western blotting based immunoprecipitation assay
Format: cell-based

Annexin A2/S100-A10 (Homo sapiens), sequence (P07355 2-339 limits assumed): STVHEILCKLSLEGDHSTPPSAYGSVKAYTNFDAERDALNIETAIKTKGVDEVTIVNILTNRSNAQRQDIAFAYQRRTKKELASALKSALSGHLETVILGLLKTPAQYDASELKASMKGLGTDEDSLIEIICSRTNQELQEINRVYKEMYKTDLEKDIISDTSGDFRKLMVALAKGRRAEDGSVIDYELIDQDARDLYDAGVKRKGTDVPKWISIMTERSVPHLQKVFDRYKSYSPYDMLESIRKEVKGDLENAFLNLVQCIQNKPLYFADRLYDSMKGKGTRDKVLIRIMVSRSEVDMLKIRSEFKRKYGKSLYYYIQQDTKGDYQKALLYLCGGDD
Annexin A2/S100-A10 (Homo sapiens), sequence (P60903 whole entry partner): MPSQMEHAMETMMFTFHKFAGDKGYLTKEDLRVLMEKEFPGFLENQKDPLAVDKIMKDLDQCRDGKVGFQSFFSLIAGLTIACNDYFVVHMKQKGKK

| Compound | inhibition |
| --- | --- |
| Ac-MSTVHEILCKLSLE-OH | Active |
| Cc1cc(C)nc(SCc2nnc(SCC(=O)Nc3ccc(C(C)C)cc3)n2Cc2ccco2)n1 | Active |
